Legend:
leukemia = test: In vivo study of alkaline emodin preparation in leukemia-injected C3H-HEJ mice
Protocol: In vivo: The mouse strain C3H-HEJ (8-10 weeks old) were used for in vivo studies. Emodin was prepared in an alkaline preparation at 10 mg/ml, and was administered to the animals via tail vein injections. One cohort of animals received a single dose of emodin equal to 43 mg/kg per animal. Two other cohorts received either two doses of drug, administered on consecutive days, or there doses of drug, administered on consecutive days. The total concentration of drug administered were 86 mg/kg and 129 mg/kg, respectively. Animals were followed until death, euthanized upon detection of illness, or euthanized at 100 days post leukemia injection.

[1] = system: tetracycline regulatable 32D-P210 cell line; test: MTT assay of cell growth, 3 day exposure to emodin; type: cell-based; conditions: emodin solubilized in DMSO, MTT assay at 72 hours, read-out: IC 50, inhibition of cellular growth
Protocol: In Vitro: A tetracycline regulatable 32D-P210 cell line was cultured in RPMI 1640 with 10% FCS and 10% Wehi supernatant and cultured at 37° C. Emodin was solubilized in DMSO at a concentration of 0.4 M for in vitro assays. A concentration of 3×10^4 cells/ml were used in a 24 well plate for a 3 day exposure to emodin. Emodin was assayed at 60 μM, 30 μM, and 10 μM concentrations. At 72 hours, a MTT assay was performed to provide a colorometric analysis of cell growth.

Cc1cc(O)c2c(c1)C(=O)c1cc(O)cc(O)c1C2=O [emodin, 3-methyl-1,6, 8 trihydroxyanthra-quinone]
tolerability of the preparation by the animal (leukemia; alkaline preparation at pH 10, tail vein injection, some bruising of the tail noted): moderately well tolerated | lifespan of animals injected with leukemia (leukemia; alkaline preparation, tail vein injections, 43, 86 or 129 mg/kg total, untreated 25 days, animals sacrificed at 100 days): 100 days | IC50 [1]: ~10 µM

Source: patent US20050008664A1, “Compositions and methods related to lipid:emodin formulations” (Board of Regents, The University of Texas System, priority 2002, published 2005)
